Measurements: US10513521B2, “Compositions and methods for inhibiting BMP” (The Brigham and Women's Hospital, Inc., priority 2014, dated 2019)

What was measured:
ALK5 = molecular target: T1, ALK5 (Homo sapiens, UniProt P36897); assay: TR-FRET enzymatic ALK kinase assay, ALK5
T1 sequence (P36897 34-503): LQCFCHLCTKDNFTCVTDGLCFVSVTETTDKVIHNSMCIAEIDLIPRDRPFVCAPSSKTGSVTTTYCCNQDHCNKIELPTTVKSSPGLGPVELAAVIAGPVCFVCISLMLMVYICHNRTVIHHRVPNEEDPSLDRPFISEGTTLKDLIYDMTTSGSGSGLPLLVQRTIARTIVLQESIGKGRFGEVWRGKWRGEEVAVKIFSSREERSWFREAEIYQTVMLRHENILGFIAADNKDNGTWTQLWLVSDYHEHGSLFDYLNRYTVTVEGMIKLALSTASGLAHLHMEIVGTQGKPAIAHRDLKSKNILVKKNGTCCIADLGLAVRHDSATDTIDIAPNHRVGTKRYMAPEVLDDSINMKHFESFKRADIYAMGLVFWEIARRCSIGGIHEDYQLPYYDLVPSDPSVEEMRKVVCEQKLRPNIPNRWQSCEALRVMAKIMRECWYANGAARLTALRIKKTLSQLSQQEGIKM
Procedure: Six ALK kinase enzyme assays were developed for determination of compound activities on ALK1, ALK2, ALK3, ALK4, ALK5 and ALK6.
(§1) Briefly, the ALKs enzymatic assay was initiated by dispense 2.5 μl enzyme in 1× kinase reaction buffer. The assay plate was then added with compounds followed by incubation at room temperature for 10 minutes. Then 2.5 μl/well substrate was added.

ALK6 = ALK6 (Homo sapiens, UniProt O00238); assay: TR-FRET enzymatic ALK kinase assay, ALK6
Procedure: as §1

ALK2 = molecular target: T2, ALK2 (Homo sapiens, UniProt Q04771); assay: TR-FRET enzymatic ALK kinase assay, ALK2
T2 sequence (Q04771 21-509): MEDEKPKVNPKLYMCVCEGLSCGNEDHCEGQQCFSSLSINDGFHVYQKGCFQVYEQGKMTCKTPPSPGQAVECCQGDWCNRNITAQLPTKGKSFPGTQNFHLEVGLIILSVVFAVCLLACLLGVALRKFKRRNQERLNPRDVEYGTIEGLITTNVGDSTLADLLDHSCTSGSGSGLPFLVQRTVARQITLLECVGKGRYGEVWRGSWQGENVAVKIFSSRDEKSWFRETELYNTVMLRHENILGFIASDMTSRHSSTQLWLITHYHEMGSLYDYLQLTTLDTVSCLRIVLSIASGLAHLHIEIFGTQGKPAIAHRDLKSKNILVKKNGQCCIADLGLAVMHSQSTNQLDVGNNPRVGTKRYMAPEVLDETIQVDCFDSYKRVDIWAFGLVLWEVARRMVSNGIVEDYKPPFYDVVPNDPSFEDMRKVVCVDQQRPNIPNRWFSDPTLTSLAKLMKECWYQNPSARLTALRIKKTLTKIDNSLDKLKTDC
Procedure: as §1

ALK1 = ALK1 (Homo sapiens, UniProt P37023); assay: TR-FRET enzymatic ALK kinase assay, ALK1
Procedure: as §1

ALK3 = ALK3 (Homo sapiens, UniProt P36894); assay: TR-FRET enzymatic ALK kinase assay, ALK3
Procedure: as §1

ALK4 = molecular target: T3, ALK4 (Homo sapiens, UniProt P36896); assay: TR-FRET enzymatic ALK kinase assay, ALK4
T3 sequence (P36896 24-505): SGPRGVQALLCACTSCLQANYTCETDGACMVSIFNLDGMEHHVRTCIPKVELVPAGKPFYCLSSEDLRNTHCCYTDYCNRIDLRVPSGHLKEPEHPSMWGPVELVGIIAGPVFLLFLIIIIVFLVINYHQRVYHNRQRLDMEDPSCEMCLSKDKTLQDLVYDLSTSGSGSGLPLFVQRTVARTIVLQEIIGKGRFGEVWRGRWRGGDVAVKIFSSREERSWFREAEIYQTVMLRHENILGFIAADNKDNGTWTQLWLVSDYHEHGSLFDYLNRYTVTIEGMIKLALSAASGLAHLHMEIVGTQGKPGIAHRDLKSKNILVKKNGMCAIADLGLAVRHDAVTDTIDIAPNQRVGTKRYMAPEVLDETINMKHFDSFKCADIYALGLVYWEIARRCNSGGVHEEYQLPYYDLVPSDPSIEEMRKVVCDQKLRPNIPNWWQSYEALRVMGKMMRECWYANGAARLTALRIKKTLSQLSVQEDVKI
Procedure: as §1

ALK3, sequence (P36894 24-532): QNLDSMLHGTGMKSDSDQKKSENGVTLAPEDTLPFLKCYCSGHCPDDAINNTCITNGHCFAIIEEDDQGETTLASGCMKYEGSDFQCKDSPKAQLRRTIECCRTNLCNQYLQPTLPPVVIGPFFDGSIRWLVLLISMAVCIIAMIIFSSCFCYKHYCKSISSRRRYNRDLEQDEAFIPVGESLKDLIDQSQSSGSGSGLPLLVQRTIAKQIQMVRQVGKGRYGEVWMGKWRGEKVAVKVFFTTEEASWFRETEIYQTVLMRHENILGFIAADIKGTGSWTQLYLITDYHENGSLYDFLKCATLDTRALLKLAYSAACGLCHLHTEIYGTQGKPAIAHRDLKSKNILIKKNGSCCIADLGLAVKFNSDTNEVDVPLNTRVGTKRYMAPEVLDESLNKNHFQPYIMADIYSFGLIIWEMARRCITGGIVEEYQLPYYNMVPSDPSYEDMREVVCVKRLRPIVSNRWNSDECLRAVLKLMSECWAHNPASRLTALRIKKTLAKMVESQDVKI
ALK1, sequence (P37023 22-503): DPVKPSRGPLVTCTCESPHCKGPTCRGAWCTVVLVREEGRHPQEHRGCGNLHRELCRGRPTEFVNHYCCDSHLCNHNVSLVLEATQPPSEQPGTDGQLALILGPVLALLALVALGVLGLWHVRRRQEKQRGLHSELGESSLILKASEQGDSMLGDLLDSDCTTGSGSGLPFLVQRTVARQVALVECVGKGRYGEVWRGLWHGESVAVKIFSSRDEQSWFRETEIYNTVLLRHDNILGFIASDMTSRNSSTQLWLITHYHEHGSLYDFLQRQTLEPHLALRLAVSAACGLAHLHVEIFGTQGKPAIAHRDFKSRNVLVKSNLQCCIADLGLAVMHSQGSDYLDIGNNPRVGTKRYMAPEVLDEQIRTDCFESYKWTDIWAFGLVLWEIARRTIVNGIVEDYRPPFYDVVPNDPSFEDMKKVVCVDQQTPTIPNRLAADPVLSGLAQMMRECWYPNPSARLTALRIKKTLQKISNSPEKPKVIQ
ALK6, sequence (O00238 14-502): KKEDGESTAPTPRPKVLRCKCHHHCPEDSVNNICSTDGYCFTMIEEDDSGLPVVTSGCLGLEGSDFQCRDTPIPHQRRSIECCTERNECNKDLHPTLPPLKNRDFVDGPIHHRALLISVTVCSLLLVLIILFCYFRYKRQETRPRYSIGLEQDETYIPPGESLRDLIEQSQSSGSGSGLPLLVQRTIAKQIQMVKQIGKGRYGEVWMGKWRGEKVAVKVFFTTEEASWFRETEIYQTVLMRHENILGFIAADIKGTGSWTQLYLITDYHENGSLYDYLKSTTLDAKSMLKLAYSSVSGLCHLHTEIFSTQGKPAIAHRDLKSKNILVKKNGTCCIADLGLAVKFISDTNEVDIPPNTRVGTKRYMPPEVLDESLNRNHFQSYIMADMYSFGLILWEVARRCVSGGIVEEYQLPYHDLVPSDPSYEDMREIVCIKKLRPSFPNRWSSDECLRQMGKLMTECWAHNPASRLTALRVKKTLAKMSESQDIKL

IC50 (ALK5) [µM]	IC50 (ALK6) [µM]	IC50 (ALK2) [µM]	IC50 (ALK1) [µM]	IC50 (ALK3) [µM]	IC50 (ALK4) [µM]	SMILES
> 10	> 10	0.13	0.61	> 10	> 10	CC(O)c1cccc(-c2cnn3cc(-c4ccc(C5CCNC5)cc4)cnc23)c1 (stereo not drawn) [Compound 130, 1-(3-(6-(4-(pyrrolidin-3-yl)phenyl)pyrazolo[1,5-a]pyrimidin-3-yl)phenyl)ethanol]
> 10	> 10	0.13	0.63	6.4	> 10	CS(=O)(=O)c1cccc(-c2cnn3cc(-c4ccc(CCN5CCC(O)C5)cc4)cnc23)c1 (stereo not drawn) [Compound 132, 1-(4-(3-(3-(methylsulfonyl)phenyl)pyrazolo[1,5-a]pyrimidin-6-yl)phenethyl)pyrrolidin-3-ol]
> 10	> 10	0.15	0.67	> 10	> 10	CC(O)c1cccc(-c2cnn3cc(-c4ccc(C5CCCCN5)cc4)cnc23)c1 (stereo not drawn) [Compound 135, 1-(3-(6-(4-(piperidin-2-yl)phenyl)pyrazolo[1,5-a]pyrimidin-3-yl)phenyl)ethanol]
> 10	> 10	0.11	0.58	4.9	> 10	CC(O)c1cccc(-c2cnn3cc(-c4ccc(C5CCCNC5)cc4)cnc23)c1 (stereo not drawn) [Compound 138, 1-(3-(6-(4-(piperidin-3-yl)phenyl)pyrazolo[1,5-a]pyrimidin-3-yl)phenyl)ethanol]
> 10	> 10	0.14	0.62	7.6	> 10	CS(=O)(=O)c1cccc(-c2cnn3cc(-c4ccc(CCN5CCC(O)CC5)cc4)cnc23)c1 [Compound 140, 1-(4-(3-(3-(methylsulfonyl)phenyl)pyrazolo[1,5-a]pyrimidin-6-yl)phenethyl)piperidin-4-ol]
> 10	> 10	0.098	0.75	5.9	> 10	CS(=O)(=O)c1cccc(-c2cnn3cc(-c4ccc(CCN5CCCC(O)C5)cc4)cnc23)c1 (stereo not drawn) [Compound 141, 1-(4-(3-(3-(methylsulfonyl)phenyl)pyrazolo[1,5-a]pyrimidin-6-yl)phenethyl)piperidin-3-ol]
> 10	> 10	0.11	0.56	1.6	> 10	CC(O)c1cccc(-c2cnn3cc(-c4ccc(OCCN5CCCCC5)cc4)cnc23)c1 (stereo not drawn) [Compound 142, 1-(3-(6-(4-(2-(piperidin-1-yl)ethoxy)phenyl)pyrazolo[1,5-a]pyrimidin-3-yl)phenyl)ethanol]
> 10	> 10	0.22	1.4	8	> 10	CC(O)c1cccc(-c2cnn3cc(-c4ccc(CCN5CCCC5)cc4)cnc23)c1 (stereo not drawn) [Compound 146, 1-(3-(6-(4-(2-(pyrrolidin-1-yl)ethyl)phenyl)pyrazolo[1,5-a]pyrimidin-3-yl)phenyl)ethanol]
> 10	> 10	0.15	0.79	6.4	> 10	CC(O)c1cccc(-c2cnn3cc(-c4ccc(CCN5CCC(O)C5)cc4)cnc23)c1 (stereo not drawn) [Compound 148, 1-(4-(3-(3-(1-hydroxyethyl)phenyl)pyrazolo[1,5-a]pyrimidin-6-yl)phenethyl)pyrrolidin-3-ol]
> 10	> 10	0.18	4.5	6.8	> 10	C[C@@H](O)c1cccc(-c2cnn3cc(-c4ccc(OCCN5CCCCC5)cc4)cnc23)c1 [Compound 149, (R)-1-(3-(6-(4-(2-(piperidin-1-yl)ethoxy)phenyl)pyrazolo[1,5-a]pyrimidin-3-yl)phenyl)ethanol]
> 10	> 10	0.11	1.4	4.3	> 10	NC(c1cccc(-c2cnn3cc(-c4ccc(OCCN5CCCCC5)cc4)cnc23)c1)C(F)(F)F (stereo not drawn) [Compound 153, 2,2,2-trifluoro-1-(3-(6-(4-(2-(piperidin-1-yl)ethoxy)phenyl)pyrazolo[1,5-a]pyrimidin-3-yl)phenyl)ethanamine]

The next lines start with the molecule.

SMILES	IC50 (ALK5) [µM]	IC50 (ALK6) [µM]	IC50 (ALK2) [µM]	IC50 (ALK1) [µM]	IC50 (ALK3) [µM]	IC50 (ALK4) [µM]
CS(=O)(=O)c1cccc(-c2cnn3cc(-c4ccc(CCN5CCOCC5)cc4)cnc23)c1 [Compound 131, 4-(4-(3-(3-(methylsulfonyl)phenyl)pyrazolo[1,5-a]pyrimidin-6-yl)phenethyl)morpholine]	> 10	5.1	0.15	0.76	2.3	> 10
CS(=O)(=O)c1cccc(-c2cnn3cc(-c4ccc(CCn5ccnc5)cc4)cnc23)c1 [Compound 133, 6-(4-(2-(1H-imidazol-1-yl)ethyl)phenyl)-3-(3-(methylsulfonyl)phenyl)pyrazolo[1,5-a]pyrimidine]	> 10	> 10	0.23	0.67	> 10	> 10
CS(=O)(=O)c1cccc(-c2cnn3cc(-c4ccc(C5CCCNC5)cc4)cnc23)c1 (stereo not drawn) [Compound 139, 3-(3-(methylsulfonyl)phenyl)-6-(4-(piperidin-3-yl)phenyl)pyrazolo[1,5-a]pyrimidine]	> 10	> 10	0.089	0.37	4.8	> 10
NC(c1ccc(-c2cnn3cc(-c4ccc(OCCN5CCCCC5)cc4)cnc23)cc1)C(F)(F)F (stereo not drawn) [Compound 144, 2,2,2-trifluoro-1-(4-(6-(4-(2-(piperidin-1-yl)ethoxy)phenyl)pyrazolo[1,5-a]pyrimidin-3-yl)phenyl)ethanamine]	> 10	> 10	> 10	> 10	> 10	> 10
CC(O)c1cccc(-c2cnn3cc(-c4ccc(OCCN5CCCC5)cc4)cnc23)c1 (stereo not drawn) [Compound 145, 1-(3-(6-(4-(2-(pyrrolidin-1-yl)ethoxy)phenyl)pyrazolo[1,5-a]pyrimidin-3-yl)phenyl)ethanol]	> 10	> 10	0.063	1	2.6	> 10
CC(O)c1cccc(-c2cnn3cc(-c4ccc(CCN5CCOCC5)cc4)cnc23)c1 (stereo not drawn) [Compound 147, 1-(3-(6-(4-(2-morpholinoethyl)phenyl)pyrazolo[1,5-a]pyrimidin-3-yl)phenyl)ethanol]	> 10	> 10	0.17	0.47	> 10	> 10
CC(O)c1cccc(-c2cnn3cc(-c4ccc(CCN5CCCC(O)C5)cc4)cnc23)c1 (stereo not drawn) [Compound 150, 1-(4-(3-(3-(1-hydroxyethyl)phenyl)pyrazolo[1,5-a]pyrimidin-6-yl)phenethyl)piperidin-3-ol]	> 10	> 10	0.14	0.71	4.1	> 10
CC(O)c1cccc(-c2cnn3cc(-c4ccc(CCN5CCC(O)CC5)cc4)cnc23)c1 (stereo not drawn) [Compound 151, 1-(4-(3-(3-(1-hydroxyethyl)phenyl)pyrazolo[1,5-a]pyrimidin-6-yl)phenethyl)piperidin-4-ol]	> 10	> 10	0.11	0.82	4.3	> 10
